Data as given in BindingDB's records for patent US12391670 (Leadxpro, 2025).

Experiments:
Assay in all cases: Radioligand Binding Assay
[1] = target: Adenosine receptor A2a (Homo sapiens, UniProt P29274)
Description: (§1) For all four adenosine receptors (A1, A2A, A2B and A3) filtration binding assay was performed. Radioligand binding competition assay was done in duplicates in the wells of a 96-well plate (Master Block, Greiner, 786201) containing binding buffer, receptor membrane extracts, a fixed concentration of tracer and test compound at increasing concentrations. In order to eliminate effect of buffer components, binding buffer was the same for all four receptors and contained: 50 mM Tris-HCl pH 7.4, 5 mM MgCl2, 1 mM EDTA, 150 mM NaCl, 0.1% Na-azide, and 5 U/ml adenosine-deaminase. Nonspecific binding was determined by co-incubation with 200-fold excess of cold competitor. In all radioligand binding experiments, the samples were incubated in a final volume of 0.1 ml for 60 minutes at 25° C. and then filtered over Unifilter plates (Perkin Elmer) pre-treated for 2 hours to limit tracer non-specific binding. Filters were washed five times with 0.5 ml of ice-cold washing buffer (50 mM Tris-HCl pH 7.4, 5 mM MgCl2, 1 mM EDTA) and 50 μl of Microscint 20 (Perkin Elmer) were added to each filter. The plates are incubated 15 min at room temperature on an orbital shaker and then counted with a TopCount™ for 1 min/well.

[2] = target: T1, Adenosine receptor A2b (Homo sapiens, UniProt P29275)
T1 sequence (P29275 whole entry): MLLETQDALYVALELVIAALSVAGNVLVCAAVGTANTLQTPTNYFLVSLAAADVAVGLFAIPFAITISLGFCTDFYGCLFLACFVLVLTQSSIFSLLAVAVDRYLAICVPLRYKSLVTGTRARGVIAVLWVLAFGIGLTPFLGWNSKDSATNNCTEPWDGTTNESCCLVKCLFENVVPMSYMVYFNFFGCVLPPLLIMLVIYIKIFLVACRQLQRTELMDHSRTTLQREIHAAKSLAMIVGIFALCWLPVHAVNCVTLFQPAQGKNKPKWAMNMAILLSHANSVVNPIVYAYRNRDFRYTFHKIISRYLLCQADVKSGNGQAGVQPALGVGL
Description: as §1

[3] = target: T2, Adenosine receptor A3 (Homo sapiens, UniProt P0DMS8)
T2 sequence (P0DMS8 whole entry): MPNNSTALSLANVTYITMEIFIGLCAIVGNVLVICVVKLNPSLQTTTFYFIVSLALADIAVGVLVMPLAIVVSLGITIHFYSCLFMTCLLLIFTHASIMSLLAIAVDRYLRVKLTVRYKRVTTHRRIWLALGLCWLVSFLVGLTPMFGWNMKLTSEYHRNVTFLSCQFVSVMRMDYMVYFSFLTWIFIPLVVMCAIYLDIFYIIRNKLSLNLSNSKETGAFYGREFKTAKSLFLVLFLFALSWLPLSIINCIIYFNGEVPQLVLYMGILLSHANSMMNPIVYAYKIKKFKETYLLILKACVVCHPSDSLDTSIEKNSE
Description: as §1

Chain of Adenosine receptor A2a (P29274 whole entry): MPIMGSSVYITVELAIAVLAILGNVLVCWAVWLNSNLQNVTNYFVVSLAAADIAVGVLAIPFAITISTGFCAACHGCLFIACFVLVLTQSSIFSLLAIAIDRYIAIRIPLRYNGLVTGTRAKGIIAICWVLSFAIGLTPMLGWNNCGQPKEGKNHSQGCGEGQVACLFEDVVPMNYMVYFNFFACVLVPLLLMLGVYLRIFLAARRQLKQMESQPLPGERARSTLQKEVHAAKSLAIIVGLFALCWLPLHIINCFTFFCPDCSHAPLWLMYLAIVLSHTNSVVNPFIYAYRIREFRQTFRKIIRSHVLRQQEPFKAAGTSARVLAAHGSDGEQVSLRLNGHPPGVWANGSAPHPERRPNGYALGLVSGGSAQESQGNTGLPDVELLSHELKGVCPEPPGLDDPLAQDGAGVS

IC50 [1] [nM] | Ki [1] [nM] | IC50 [2] [nM] | Ki [2] [nM] | IC50 [3] [nM] | Ki [3] [nM] | SMILES
24100 | 24000 | 250 | 224 | 1350 | 1020 | Fc1ccccc1-c1nc(Nc2cccnc2)nnc1-c1ccnc(C(F)(F)F)c1 [US12391670, Example 8]
 | > 20000 | 1010 | 891 |  |  | Cc1nsc(Nc2nnc(-c3ccnc(C(F)(F)F)c3)c(-c3ccccc3F)n2)n1 [US12391670, Example 11]
